In publication PMC9995496, “A screen for MeCP2-TBL1 interaction inhibitors using a luminescence-based assay” (Scientific Reports, 2023):

Molecular target: T1, MeCP2-TBL1 interaction (MeCP2-SmBiT / TBL1-LgBiT) (Mus musculus, UniProt Q9QXE7)
T1 construct: expressed in transfected cells; crude lysate used as a cell-free assay
T1 sequence (Q9QXE7 166-527): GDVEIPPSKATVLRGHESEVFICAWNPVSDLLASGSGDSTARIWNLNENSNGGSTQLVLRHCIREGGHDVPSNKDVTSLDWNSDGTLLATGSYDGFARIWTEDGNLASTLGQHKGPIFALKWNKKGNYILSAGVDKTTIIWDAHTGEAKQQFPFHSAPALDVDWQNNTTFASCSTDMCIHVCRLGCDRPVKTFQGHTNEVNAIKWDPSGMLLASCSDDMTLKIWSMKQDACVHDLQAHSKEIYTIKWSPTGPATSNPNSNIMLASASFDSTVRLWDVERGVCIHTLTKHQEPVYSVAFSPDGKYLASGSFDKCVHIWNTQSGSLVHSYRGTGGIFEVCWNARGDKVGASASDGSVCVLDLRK
Experiment: MeCP2-TBL1 NanoLuc luciferase complementation assay (cell-free, extracts of transfected HEK293 cells);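 note: each compound tested at 20 µM final concentration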
Type: binding, human
How it was run: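 Cell-free split NanoLuc: lysate of HEK293 cells co-expressing the MeCP2 C-terminal half-SmBiT and TBL1 WD domain-LgBiT, mixed 1:1 with furimazine. After 30 min at room temperature, luminescence was plate-median normalized.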

[1] = primary screen of the Asinex library, sheet "Sargen output Asinex library", one well per compound, Batch Ref. 1
[2] = primary screen of Asinex library, single well per compound
[3] = primary screen of the Asinex library, sheet "Sargen output Asinex library", one well per compound

Row | SMILES | Inhibition percent [1] | Inhibition percent [3] | further results
1 | C[C@@]12C[C@H]3[C@H](Cc4ccccc4)N[C@@H]1CCCC[C@@H]2N3C(=O)COc1ccccc1 [BDG_33505297] | -0.84% |  | 
2 | C[C@]12C[C@@H]3N[C@H]1CCCC[C@H]2N(C(=O)COc1ccc(F)cc1F)[C@H]3Cc1ccccc1 [BDG_33505865] |  |  | Inhibition percent [2]: 1.00
3 | COc1cccc(-c2cc(C(=O)N3[C@H]4CCC[C@H]5N(C)[C@H](Cc6ccccc6)[C@@H]3C[C@@]45C)on2)c1 [BDG_33506470] |  | 3.67% | 
4 | Cc1nc(-c2cccnc2)sc1C(=O)N1[C@H]2CCC[C@H]3N[C@H](Cc4ccccc4)[C@@H]1C[C@@]23C [BDG_33506581] |  | -1.21% | 
5 | CC(=O)N1[C@@H](Cc2ccccc2)[C@@H]2C[C@@]3(C)[C@H](CCCC[C@@H]13)N2Cc1ccc(OCC(=O)O)cc1 [BDG_33507682] |  | 3.50% | 
6 | CCc1nccn1-c1ccc(C(=O)N2[C@H]3CCC[C@H]4N[C@@H](Cc5ccccc5)[C@@H]2C[C@@]34C)cn1 [BDG_33507727] |  | -2.00% | 
7 | C[C@@]12C[C@H]3[C@H](Cc4ccccc4)N[C@@H]1CCC[C@@H]2N3C(=O)c1ccnc(Cc2ccccc2F)c1 [BDG_33507770] | -1.87% |  | 
8 | O=C(COc1ncnc2ccccc12)N1C[C@@H]2CC[C@H](Oc3ccc(Cl)cc3)[C@@H]2C1 [BDG_33516371] | 0.45% |  | 
9 | CN(C)[C@@H]1C[C@@H](C(N)=O)N(CC(=O)Nc2ccc(Oc3ccccc3)cc2)[C@H]1c1ccccc1 [BDG_33626169] | 3.84% |  | 
10 | C[C@]12C[C@@H](Cc3ccccc3)N(C(=O)CCNC(=O)c3cccnc3)[C@H]1CCCC(=O)N2 [BDG_33627395] |  |  | Inhibition percent [2]: 0.80
11 | Cn1c(COCC(=O)N2[C@H](Cc3ccccc3)C[C@]3(C)NC(=O)CCC[C@H]23)nc2ccccc21 [BDG_33628430] | -0.52% |  | 
12 | C[C@]12C[C@@H](Cc3ccccc3)N(C(=O)CCCNc3ncnc4ccccc34)[C@H]1CCCC(=O)N2 [BDG_33628681] | -1.67% |  | 
13 | Cc1cccc(NC(=O)CCCC(=O)N2[C@H](Cc3ccccc3)C[C@]3(C)NC(=O)CCC[C@H]23)n1 [BDG_33629701] | -3.82% |  | 
14 | CC(=O)N[C@H]1C[C@@H](C(=O)N(C)C)N(C(=O)CCCn2c(C)nc3ccccc32)[C@H]1c1ccccc1 [BDG_33630230] |  |  | Inhibition percent [2]: -0.15
15 | CN(CCC(=O)N1[C@H](Cc2ccccc2)C[C@]2(C)NC(=O)CCC[C@H]12)Cc1cccnc1 [BDG_33630477] |  | -2.32% | 
16 | CC(=O)N[C@H]1C[C@@H](C(=O)N(C)C)N(C(=O)CCn2cnc3ccccc32)[C@H]1c1ccccc1 [BDG_33631962] |  |  | Inhibition percent [2]: 5.65
17 | COc1ccc2c(c1)[C@H]1OCC3(CCN(S(C)(=O)=O)CC3)C[C@@H]1C(C)(C)O2 [BDG_33690555] | -0.51% |  | 
18 | COc1ccc2c(c1)[C@H]1OCC3(CCN(Cc4cnccn4)CC3)C[C@@H]1C(C)(C)O2 [BDG_33690689] |  | -2.69% | 
19 | Cc1cnc(C(=O)N2CCC3(CC2)CO[C@@H]2c4ccc(O)cc4OC(C)(C)[C@H]2C3)cn1 [BDG_33691581] |  | 1.04% | 
20 | CC1(C)Oc2cc(O)ccc2[C@H]2OCC3(CCN(C(=O)c4ncccc4O)CC3)C[C@@H]21 [BDG_33691662] | -1.26% |  | 
21 | CCOc1cccc2c1OC(C)(C)[C@H]1CC3(CCN(Cc4cnc(NC)nc4)CC3)CO[C@H]21 [BDG_33691710] |  |  | Inhibition percent [2]: -4.17

Row | SMILES | Inhibition percent [1] | Inhibition percent [3] | further results
22 | COc1ccc2c(c1)OC(C)(C)[C@H]1CC3(CCN(C(=O)CCn4ccnc4)CC3)CO[C@H]21 [BDG_33691777] |  |  | Inhibition percent [2]: -0.71
23 | CCc1cc(C(=O)N2CCC3(CC2)CO[C@@H]2c4cc(OC)ccc4OC(C)(C)[C@H]2C3)no1 [BDG_33691868] | 2.32% |  | 
24 | Cc1ccc2c(c1)OC(C)(C)[C@H]1CC3(CCN(C(=O)CN4CCOCC4)CC3)CO[C@H]21 [BDG_33692107] | -1.45% |  | 
25 | CC1(C)Oc2ccccc2[C@H]2OCC3(CCN(C(=O)CCc4cccnc4)CC3)C[C@@H]21 [BDG_33692190] | -1.50% |  | 
26 | COc1cccc2c1OC(C)(C)[C@H]1CC3(CCN(C(=O)CCCc4ccncc4)CC3)CO[C@H]21 [BDG_33693373] |  | -2.47% | 
27 | Cc1n[nH]c(C)c1S(=O)(=O)N1CCC2(CC1)CO[C@@H]1c3ccccc3OC(C)(C)[C@H]1C2 [BDG_33694386] |  | 2.05% | 
28 | CC1(C)Oc2ccc(Cl)cc2[C@H]2OCC3(CCN(C(=O)CNC(=O)c4ccccc4)CC3)C[C@@H]21 [BDG_33694526] |  |  | Inhibition percent [2]: -2.33
29 | CC1(C)Oc2ccccc2[C@H]2OCC3(CCN(C(=O)c4[nH]nc5c4CCCCC5)CC3)C[C@@H]21 [BDG_33694755] | 2.01% |  | 
30 | COc1cccc2c1OC(C)(C)[C@H]1CC3(CCN(C(=O)CCCN4C(=O)CNC4=O)CC3)CO[C@H]21 [BDG_33695254] |  |  | Inhibition percent [2]: -4.47
31 | CC1(C)Oc2ccccc2[C@H]2OCC3(CCN(C(=O)c4cccc(-n5cnnc5)c4)CC3)C[C@@H]21 [BDG_33695504] | 0.97% |  | 
32 | CC1(C)Oc2ccccc2[C@H]2OCC3(CCN(C(=O)c4ccnc(N5CCCC5)c4)CC3)C[C@@H]21 [BDG_33695760] |  |  | Inhibition percent [2]: 0.33
33 | CCN(CC)S(=O)(=O)N1CCC2(C/C=C/Cc3ccccc3OCC(=O)NC2)CC1 [BDG_33697034] |  |  | Inhibition percent [2]: 1.72
34 | COCC(=O)N1CC2(CO[C@@H]3c4cccc(OC)c4OC(C)(C)[C@H]3C2)C1 [BDG_33739062] | -2.32% |  | 
35 | COc1cccc2c1OC(C)(C)[C@H]1CC3(CO[C@H]21)CN(Cc1cn(C)cn1)C3 [BDG_33739186] |  | -0.50% | 
36 | Cc1cccnc1C(=O)N1CC2(CO[C@@H]3c4ccccc4OC(C)(C)[C@H]3C2)C1 [BDG_33739514] | 0.31% |  | 
37 | Cc1ccc2c(c1)OC(C)(C)[C@H]1CC3(CO[C@H]21)CN(C(=O)CCn1nc(O)ccc1=O)C3 [BDG_33741109] | -2.39% |  | 
38 | Cc1cc(C)n(CCCC(=O)N2CCCC[C@]3(C)NC(=O)CC[C@H]23)n1 [BDG_33850399] |  |  | Inhibition percent [2]: 0.88
39 | CC(C)(C)OC(=O)N1CC[C@H]2O[C@H]3c4ccccc4OC(C)(C)[C@@H]3C[C@@]2(CO)C1 [BDG_33896521] |  | 3.83% | 
40 | CN(CCOc1ccccc1)C(=O)c1c(O)ccc2c1O[C@@H]1C[C@H]3C[C@H](C3(C)C)[C@]1(O)[C@H]2O [BDG_33899827] | 2.70% |  | 
41 | COc1cccc2c1OC1(CCN(C)CC1)[C@H]1CCCO[C@H]21 [BDG_33900051] |  | -1.32% | 
42 | Oc1cccc2c1OC1(CCN(Cc3ccccc3)CC1)[C@H]1CCCO[C@H]21 [BDG_33900148] | 0.73% |  | 

Row | SMILES | Inhibition percent [1] | Inhibition percent [3] | further results
43 | Oc1cccc2c1OC1(CCN(Cc3ccncc3)CC1)[C@H]1CCCO[C@H]21 [BDG_33900152] |  | -3.60% | 
44 | Cc1ccc2c(c1)OC1(CCN(Cc3cscn3)CC1)[C@H]1CCCO[C@H]21 [BDG_33900204] | 4.69% |  | 
45 | COC(C)(C)C(=O)N1CCC2(CC1)Oc1c(O)cccc1[C@H]1OCCC[C@@H]12 [BDG_33900229] |  | -2.79% | 
46 | COc1cccc2c1OC1(CCN(C(=O)C(C)(C)OC)CC1)[C@H]1CCCO[C@H]21 [BDG_33900230] | -2.85% |  | 
47 | COc1cccc2c1OC1(CCN(Cc3cccc(O)c3)CC1)[C@H]1CCCO[C@H]21 [BDG_33900272] | 6.42% |  | 
48 | Cc1cnn(CC(=O)N2CCC3(CC2)Oc2ccc(Cl)cc2[C@H]2OCCC[C@@H]23)c1 [BDG_33900405] |  |  | Inhibition percent [2]: 5.31
49 | Cc1ccc2c(c1)OC1(CCN(Cc3ccc(Cl)cn3)CC1)[C@H]1CCCO[C@H]21 [BDG_33900424] |  |  | Inhibition percent [2]: 0.92
50 | COc1ccccc1C(=O)N1CCC2(CC1)Oc1ccc(Cl)cc1[C@H]1OCCC[C@@H]12 [BDG_33900472] | 10.01% |  | 
51 | CS(=O)(=O)c1ccc(CN2CCC3(CC2)Oc2ccc(Cl)cc2[C@H]2OCCC[C@@H]23)cc1 [BDG_33900656] | -0.96% |  | 
52 | CC(C)N1CC[C@H]2O[C@H]3c4ccccc4OC(C)(C)[C@@H]3C[C@H]21 [BDG_33900670] |  | -3.00% | 
53 | COCC(=O)N1CC[C@H]2O[C@H]3c4ccccc4OC(C)(C)[C@@H]3C[C@H]21 [BDG_33900725] |  | 0.0324% | 
54 | CC1(C)Oc2ccccc2[C@@H]2O[C@@H]3CCN(C(=O)CCN4CCCC4=O)[C@@H]3C[C@H]21 [BDG_33901240] |  |  | Inhibition percent [2]: 0.48
55 | Clc1ccc2c(c1)[C@H]1OCCC[C@@H]1C1(CCN(CC3CCOCC3)CC1)O2 [BDG_33901423] |  | -1.08% | 
56 | C[C@@H]1CC[C@@H]2[C@@H](C1)c1c(ccc(C(=O)NCCN(C)C)c1O)OC2(C)C [BDG_33904603] | 9.91% |  | 
57 | C[C@@H]1CC[C@@H]2[C@@H](C1)c1c(ccc(C(=O)O)c1O)OC2(C)C [BDG_33904752] |  | 2.57% | 
58 | CC(=O)N[C@H](CC(N)=O)C(=O)N1CC[C@@H]2O[C@@H]3c4ccccc4OC(C)(C)[C@H]3C[C@@H]2C1 [BDG_33905309] |  |  | Inhibition percent [2]: 0.54
59 | CC(=O)N[C@@H](Cc1c[nH]c2ccccc12)C(=O)N1CC[C@H]2O[C@H]3c4cc(Cl)ccc4OC(C)(C)[C@@H]3C[C@H]2C1 [BDG_33905586] | -0.13% |  | 
60 | O=[N+]([O-])c1ccc2c(c1)[C@H]1OCCC[C@@H]1C1(CCCCC1)O2 [BDG_33907582] |  | 0.74% | 
61 | CC(C)(C)OC(=O)N1CC[C@H]2O[C@H]3c4ccc(O)cc4OC(C)(C)[C@@H]3C[C@@H]2C1 [BDG_33953342] |  | 2.11% | 
